Data reported in patent US8598128B2, “Fructosylated puerarin, and preparation method and use thereof” (priority 2010, dated 2013).
Converted amounts (≈) assume the structure as drawn.

What was measured:
[1] = Metabokinetic experiment in blood after caudal vein injection; settings: 50 mg/kg caudal vein, n = 5
Procedure: Embodiment 5: Metabokinetic Experiment of monofructosyl-β(2,6)-Puerarin in Blood
In HPLC analysis, DIONEX was used, with chromatographic column as Discovery HS C18 ([…], 5 μm), feeding specimen volume 20 μL, column temperature 30° C., the detector was UVD170U, with detection wavelength of 254 nm, flowing phase: A, water, B, chromatographic class methanol, A:B=80:20, at flow rate of 1 mL/min.
Sprague-Dawley mice (SD mice), with weight of 180-220 g, male and female in half, provided by Medical Experiment Center of Nantong University, with production permit No.: SCXK (Su) 20080010.
SD mice were randomly divided into 2 groups of 5 each, fasting for 12 hours before experiment. Puerarin and monofructosyl-β(2,6)-puerarin were respectively dissolved in 20% 1,2-PG normal saline, and injected into mouse caudal vein at a dosage of 50 mg/kg. After injection, at t=0 min, 4 min, 7 min, 17 min, 40 min, 60 min, 120 min and 180 min, 0.5 mL of blood was taken from orbit and put into centrifugal tubes treated with liquaemin, then it was immediately separated by centrifuging at 3000 rpm for 15 min, to separate out plasma for analysis.
Plasma of 100 μL was precisely taken and put into test tube, and 400 μL of methanol sedimented protein was added, they were mixed on vortex mixer for 5 min, then centrifuged at 10000 rpm for 10 min, and the supernatant was used for HPLC analysis.
The plasma concentration of the puerarin and monofructosyl-β(2,6)-puerarin specimens prepared as per 3.2 was obtained by calculation with external reference method. The data obtained were analyzed using pharmacokinetics statistic software.

[2] = Solubility determination at 25° C.

O=c1c(-c2ccc(O)cc2)coc2c([C@@H]3O[C@H](CO[C@]4(CO)O[C@H](CO)[C@@H](O)[C@@H]4O)[C@@H](O)[C@H](O)[C@H]3O)c(O)ccc12 [monofructosyl-β(2,6)-puerarin]
AUC (0-t) [1]: 5523.446 ± 688.104 mg/Lxmin
CL (whole body clearance) [1]: 9 ± 1 mL/min/kg
MRT (0-t) [1]: 25.707 ± 2.324 min
MRT (0-∞) [1]: 27.453 ± 2.976 min
Y [1]: 0.256 ± 0.032 L/kg
t½ (half life of clearance) [1]: 19.741 ± 2.34 min
solubility [2]: 26.0 mg/mL (≈ 44.9 mM)
solubility relative to puerarin ([2]; puerarin 5.2 g/L): 5 times
